pIC50: −log10 of the molar value.
Assays:
[1] = biological target: T1, β5 subunit of the human constitutive proteasome (CPS) (Homo sapiens, UniProt P28074); assay: β5 inhibition assay, human constitutive proteasome (Suc-LLVY-AMC); assay type: biochemical; details: IC50 class, Suc-LLVY-AMC substrate
T1 construct: purchased Boston Biochem E-360
Method: The enzymatic activity of the β5 subunit of the human constitutive proteasome (CPS) is analyzed. In another assay, which differs from the assay of the human constitutive proteasome only in using the human immunoproteasome (IPS) the enzymatic activity of the β5 subunit of the human immunoproteasome (IPS) is analyzed. […] Inhibition is indicated as IC50 [nM] (“-”=not measured).

[2] = biological target: T2, β5 subunit of the human immunoproteasome (IPS) (Homo sapiens, UniProt P28062); assay: β5 inhibition assay, human immunoproteasome (Suc-LLVY-AMC); assay type: biochemical; details: IC50 class, Suc-LLVY-AMC substrate
T2 construct: purchased Boston Biochem E-370
Method in brief: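 β5 activity is read as liberated AMC fluorescence (355/460 nm) after 4 h dark reaction at RT with 22.6 μM Suc-LLVY-AMC, stopped by 1 μM bortezomib. Beforehand, 1 nM human IPS and compound sat 10 min at RT in HEPES pH 7.5 buffer containing NaCl, 0.02% SDS and DTT.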

[3] = tested on: A549 (human lung carcinoma cell line); assay: Glo assay of A549 cells (Table 3; ProteasomeGlo plating scheme); assay type: cell-based; details: Homo sapiens; A549 cells; read-out: PGLo A549
Method in brief: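 Compound treatment lasts 105 minutes at 37° C. under 5% CO2. Suc-LLVY-Glo substrate premixed with detection reagent (60 min at room temperature) is then added directly to the cells, and luminescence after 10-15 min in the dark gives the IC50 in nM.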

[4] = tested on: Hs 746T (human gastric carcinoma cell line); assay: 48 hr CTG viability assay, Hs 746T; assay type: cell-based; details: Hs746T, 48 hr CTG, read-out: Hs 746T IC50
Method in brief: (§1)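 Growth inhibition by compound over 48 h; IC50 (nM) derived from duplicate CellTiter-Glo luminescence readings across 0.0015–10 uM.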

[5] = tested on: MM1 S (B lymphoblast cell line); assay: 48 hr CTG viability assay, MM1S; assay type: cell-based; details: Homo sapiens, 48 hr CTG, read-out: MM1S IC50
Method in brief: as §1

[6] = tested on: RPMI 8226 (B lymphocyte cell line, multiple myeloma); assay: 48 hr CTG viability assay, RPMI 8226; assay type: cell-based; details: Homo sapiens, RPMI-8226; 48 hr CTG; read-out: RPMI-8226 IC50
Method in brief: as §1

Measured: pIC50

Cc1ccc2cc1CNC(=O)[C@H](CCc1ccccc1)NC(=O)[C@@H](NC(=O)CCOCC1CCC1)CC(=O)N1CCCC(CCO2)C1 (stereo partly drawn) [Compound 628, 3-(cyclobutylmethoxy)-N-((9S,12S)-5^4-methyl-8,11,14-trioxo-9-phenethyl-4-oxa-7,10-diaza-1(3,1)-piperidina-5(1,3)-benzenacyclotetradecaphane-12-yl)propanamide]
> 7.00: all assays above

Cc1ccc2cc1CNC(=O)[C@H](CCc1ccccc1)NC(=O)[C@@H](NC(=O)CC1COC1)CC(=O)N1CCCC(CCO2)C1 (stereo partly drawn) [Compound 635, N-((9S,12S)-5^4-methyl-8,11,14-trioxo-9-phenethyl-4-oxa-7,10-diaza-1(3,1)-piperidina-5(1,3)-benzenacyclotetradecaphane-12-yl)-2-(oxetan-3-yl)acetamide]
> 7.00: all assays above

Cc1ccc2cc1CNC(=O)[C@H](CCc1ccccc1)NC(=O)[C@@H](NC(=O)CCNC(=O)C1CC3CCC1O3)CC(=O)N1CCCC(CCO2)C1 (stereo partly drawn) [Compound 701, N-(3-(((9S,12S)-5^4-methyl-8,11,14-trioxo-9-phenethyl-4-oxa-7,10-diaza-1(3,1)-piperidina-5(1,3)-benzenacyclotetradecaphane-12-yl)amino)-3-oxopropyl)-7-oxabicyclo[2.2.1]heptane-2-carboxamide]
> 7.00: all assays above

Cc1ccc2cc1CNC(=O)[C@H](CCc1ccccc1)NC(=O)[C@@H](NC(=O)CCOC1CC3(C1)CN(C)C3)CC(=O)N1CCCC(CCO2)C1 (stereo partly drawn) [Compound 710, 3-((2-methyl-2-azaspiro[3.3]heptan-6-yl)oxy)-N-((9S,12S)-5^4-methyl-8,11,14-trioxo-9-phenethyl-4-oxa-7,10-diaza-1(3,1)-piperidina-5(1,3)-benzenacyclotetradecaphane-12-yl)propanamide]
> 7.00: all assays above

Cc1ccc2cc1CNC(=O)[C@H](CCc1ccccc1)NC(=O)[C@@H](NC(=O)CCN1CC3CCC1C3)CC(=O)N1CCCC(CCO2)C1 (stereo partly drawn) [Compound 673, 3-(2-azabicyclo[2.2.1]heptan-2-yl)-N-((9S,12S)-5^4-methyl-8,11,14-trioxo-9-phenethyl-4-oxa-7,10-diaza-1(3,1)-piperidina-5(1,3)-benzenacyclotetradecaphane-12-yl)propanamide]
> 7.00: all assays above

Cc1ccc2cc1CNC(=O)[C@H](CCc1ccccc1)NC(=O)[C@@H](NC(=O)CCN1CCCC1)CC(=O)N1CCCC(CCO2)C1 (stereo partly drawn) [Compound 668, N-((9S,12S)-5^4-methyl-8,11,14-trioxo-9-phenethyl-4-oxa-7,10-diaza-1(3,1)-piperidina-5(1,3)-benzenacyclotetradecaphane-12-yl)-3-(pyrrolidin-1-yl)propanamide]
> 7.00: all assays above

From patent US20240415819A1, “MACROCYCLIC COMPOUNDS AS PROTEASOME SUBUNIT BETA TYPE-5 INHIBITORS” (Lead Discovery Center GmbH, priority 2021, published 2024)
